Measurements reported in ChEMBL document CHEMBL1201862, “PubChem BioAssay data set” (2004).
Values belong to the molecule of their own block, whether it stands above or below them. Active and inactive are the calls of the source.

How the values were obtained:
cells [1] = assay type: functional, cell-based
cells [2] = assay type: functional, cell-based; remark: listed apart in the source
Insulin-degrading enzyme [3] = target: T1, Insulin-degrading enzyme (Homo sapiens, UniProt P14735); assay: recombinant IDE activation, cell-free – biochemical, fluorescence polarization, counter-screen for IDE activator project, dose response (AID 588681)
T1 sequence (P14735 whole entry): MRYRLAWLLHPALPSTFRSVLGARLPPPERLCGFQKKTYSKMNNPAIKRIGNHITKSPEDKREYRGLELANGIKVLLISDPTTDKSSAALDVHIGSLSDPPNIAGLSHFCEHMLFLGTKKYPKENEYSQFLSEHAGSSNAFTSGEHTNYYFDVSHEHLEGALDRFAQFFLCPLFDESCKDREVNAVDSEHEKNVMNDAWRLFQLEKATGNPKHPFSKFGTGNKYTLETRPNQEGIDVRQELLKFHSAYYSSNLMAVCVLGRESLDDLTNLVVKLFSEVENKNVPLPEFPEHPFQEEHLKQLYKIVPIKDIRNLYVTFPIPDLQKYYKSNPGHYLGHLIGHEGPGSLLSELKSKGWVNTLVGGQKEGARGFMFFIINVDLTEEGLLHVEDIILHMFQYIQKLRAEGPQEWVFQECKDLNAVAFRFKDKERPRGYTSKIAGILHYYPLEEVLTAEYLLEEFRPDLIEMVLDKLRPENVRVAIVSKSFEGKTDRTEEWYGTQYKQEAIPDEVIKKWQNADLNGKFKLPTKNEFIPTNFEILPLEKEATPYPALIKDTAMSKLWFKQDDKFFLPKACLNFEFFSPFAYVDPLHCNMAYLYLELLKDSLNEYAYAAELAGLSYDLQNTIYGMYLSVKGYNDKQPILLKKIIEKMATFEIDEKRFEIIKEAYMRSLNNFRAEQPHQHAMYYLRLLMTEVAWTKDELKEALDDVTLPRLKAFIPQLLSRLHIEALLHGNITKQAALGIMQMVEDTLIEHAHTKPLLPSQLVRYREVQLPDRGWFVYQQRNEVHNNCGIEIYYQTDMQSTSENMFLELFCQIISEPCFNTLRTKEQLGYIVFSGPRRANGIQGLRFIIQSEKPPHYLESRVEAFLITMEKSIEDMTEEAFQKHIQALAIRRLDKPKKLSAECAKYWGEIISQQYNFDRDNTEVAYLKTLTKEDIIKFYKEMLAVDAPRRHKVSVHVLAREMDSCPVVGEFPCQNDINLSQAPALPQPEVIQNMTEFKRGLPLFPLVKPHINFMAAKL

Insulin-degrading enzyme [4] = target: T1, Insulin-degrading enzyme; assay: cellular IDE activation of Abeta substrate cleavage – fluorescence polarization, HEK cells, dose response (AID 588439); assay type: functional, cell-based
HEK293 [5] = assay: membrane integrity loss in HEK cells – cell-based, fluorescence, cytotoxicity control for IDE activator project, dose response (AID 588440); assay type: functional; settings: Homo sapiens;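 note: cytotoxicity by LDH release measuring loss of membrane integrity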
HEK293 [6] = assay: optical interference in Abeta FP readout, dose response, artefact control for IDE activator project, biochemical, fluorescence polarization (AID 588442); assay type: functional, cell-based; settings: Homo sapiens
NIH3T3 = assay: NIH-3T3 viability with fluconazole co-treatment – cell-based, Alamar Blue, dry powder, set 2, cytotoxicity control for antifungal resistance reversal project, dose response (AID 488911); assay type: functional; settings: Mus musculus
[7] = target: T2, Sentrin-specific protease 8 (Homo sapiens, UniProt Q96LD8); assay: inhibition of human SENP8 cleavage activity – biochemical, luminescence, SAR follow-up (AID 504501); assay type: functional
T2 sequence (Q96LD8 whole entry): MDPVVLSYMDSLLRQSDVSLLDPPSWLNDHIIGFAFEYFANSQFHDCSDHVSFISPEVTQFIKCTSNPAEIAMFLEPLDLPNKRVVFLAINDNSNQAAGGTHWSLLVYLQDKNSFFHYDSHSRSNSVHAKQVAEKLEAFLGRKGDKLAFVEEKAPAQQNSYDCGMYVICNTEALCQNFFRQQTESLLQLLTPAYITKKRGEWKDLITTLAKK

Caspase-3 = target: T3, Caspase-3 (Homo sapiens, UniProt P42574); assay: SAR Analysis of small molecule inhibitors of Sentrin-specific proteases (SENPs) using a Caspase-3 Selectivity assay. [Related pubchem assays (depositor defined):AID2540, AID2599, AID434973, AID489001]; assay type: functional
T3 sequence (P42574 whole entry): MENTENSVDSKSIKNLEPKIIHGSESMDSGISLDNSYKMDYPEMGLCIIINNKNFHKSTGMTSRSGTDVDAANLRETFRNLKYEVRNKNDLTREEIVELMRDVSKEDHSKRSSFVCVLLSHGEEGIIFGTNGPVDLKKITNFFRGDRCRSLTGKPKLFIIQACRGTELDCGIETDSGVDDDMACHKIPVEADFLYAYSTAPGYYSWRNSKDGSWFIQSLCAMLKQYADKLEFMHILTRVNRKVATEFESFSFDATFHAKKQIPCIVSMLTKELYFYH

[8] = target: T4, Sentrin-specific protease 6 (Homo sapiens, UniProt Q9GZR1); assay: SAR Analysis of small molecule inhibitors of Sentrin-specific protease 6 (SENP6) using a Luminescent assay. [Related pubchem assays (depositor defined):AID2582, AID2599]; assay type: functional
T4 sequence (Q9GZR1 whole entry): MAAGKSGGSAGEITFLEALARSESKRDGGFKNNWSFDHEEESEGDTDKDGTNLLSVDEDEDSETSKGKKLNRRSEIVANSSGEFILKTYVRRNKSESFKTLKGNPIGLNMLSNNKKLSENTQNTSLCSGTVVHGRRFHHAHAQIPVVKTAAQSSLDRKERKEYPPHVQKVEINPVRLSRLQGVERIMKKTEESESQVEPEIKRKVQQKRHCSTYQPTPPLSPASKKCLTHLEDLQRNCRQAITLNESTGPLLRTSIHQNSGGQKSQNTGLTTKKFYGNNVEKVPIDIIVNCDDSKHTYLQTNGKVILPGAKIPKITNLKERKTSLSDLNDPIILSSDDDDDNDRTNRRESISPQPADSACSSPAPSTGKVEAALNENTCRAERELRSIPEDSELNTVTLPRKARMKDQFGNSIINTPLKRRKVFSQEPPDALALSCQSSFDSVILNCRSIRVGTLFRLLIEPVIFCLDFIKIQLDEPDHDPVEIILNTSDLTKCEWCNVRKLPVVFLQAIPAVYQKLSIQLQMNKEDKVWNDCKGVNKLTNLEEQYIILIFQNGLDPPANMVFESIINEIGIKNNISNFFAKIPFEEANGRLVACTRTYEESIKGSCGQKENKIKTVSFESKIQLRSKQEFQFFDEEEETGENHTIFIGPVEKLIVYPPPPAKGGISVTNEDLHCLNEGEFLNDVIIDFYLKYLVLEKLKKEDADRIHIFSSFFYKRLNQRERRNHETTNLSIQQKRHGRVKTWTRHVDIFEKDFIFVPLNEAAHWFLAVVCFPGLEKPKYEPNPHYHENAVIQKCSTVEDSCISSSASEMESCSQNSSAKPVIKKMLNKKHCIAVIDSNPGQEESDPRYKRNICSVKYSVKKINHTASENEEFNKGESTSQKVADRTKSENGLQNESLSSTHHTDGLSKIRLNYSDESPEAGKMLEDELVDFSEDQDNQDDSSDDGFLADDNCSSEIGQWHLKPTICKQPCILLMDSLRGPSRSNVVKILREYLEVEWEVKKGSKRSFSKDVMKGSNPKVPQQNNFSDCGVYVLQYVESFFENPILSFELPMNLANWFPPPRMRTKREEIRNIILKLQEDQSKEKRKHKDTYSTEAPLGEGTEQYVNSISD

[9] = target: T5, Sentrin-specific protease 7 (Homo sapiens, UniProt Q9BQF6); assay: inhibition of human SENP7 cleavage activity – biochemical, luminescence, SAR follow-up (AID 504497); assay type: functional
T5 sequence (Q9BQF6 whole entry): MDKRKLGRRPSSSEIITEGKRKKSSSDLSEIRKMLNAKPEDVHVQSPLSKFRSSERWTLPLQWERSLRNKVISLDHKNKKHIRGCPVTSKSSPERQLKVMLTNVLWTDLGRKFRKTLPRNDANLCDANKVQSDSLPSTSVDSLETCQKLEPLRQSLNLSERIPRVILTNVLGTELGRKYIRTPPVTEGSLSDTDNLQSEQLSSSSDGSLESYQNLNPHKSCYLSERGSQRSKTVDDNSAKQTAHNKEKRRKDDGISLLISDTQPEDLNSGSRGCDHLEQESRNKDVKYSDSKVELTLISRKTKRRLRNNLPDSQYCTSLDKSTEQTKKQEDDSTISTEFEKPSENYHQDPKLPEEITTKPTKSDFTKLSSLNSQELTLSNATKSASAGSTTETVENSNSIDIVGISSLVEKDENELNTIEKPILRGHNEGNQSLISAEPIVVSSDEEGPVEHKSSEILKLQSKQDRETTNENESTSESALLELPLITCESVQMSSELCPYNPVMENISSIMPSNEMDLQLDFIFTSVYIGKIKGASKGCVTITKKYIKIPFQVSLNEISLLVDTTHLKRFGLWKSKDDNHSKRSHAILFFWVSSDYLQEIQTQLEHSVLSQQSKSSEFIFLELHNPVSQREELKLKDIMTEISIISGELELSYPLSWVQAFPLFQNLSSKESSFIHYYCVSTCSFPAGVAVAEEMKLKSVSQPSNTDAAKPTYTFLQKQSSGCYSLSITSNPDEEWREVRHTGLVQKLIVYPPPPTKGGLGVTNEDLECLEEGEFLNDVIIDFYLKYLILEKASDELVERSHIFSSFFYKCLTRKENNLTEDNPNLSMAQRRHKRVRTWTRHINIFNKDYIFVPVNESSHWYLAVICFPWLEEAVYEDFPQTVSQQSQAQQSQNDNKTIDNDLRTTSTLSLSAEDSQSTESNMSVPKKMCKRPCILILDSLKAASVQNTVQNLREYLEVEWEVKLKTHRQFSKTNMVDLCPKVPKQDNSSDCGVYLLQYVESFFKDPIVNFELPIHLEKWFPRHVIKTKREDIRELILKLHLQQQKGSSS

[10] = Trypanosoma cruzi growth suppression in host cells – NIH3T3 host cells, beta-gal luminescence, confirmation (AID 2044); assay type: functional, cell-based;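 note: intracellular parasites grown in NIH/3T3 mouse fibroblasts as host cells; luminescent beta-galactosidase reporter signal from transgenic T. cruzi replicating inside host cells; inhibitors lower the luminescence signal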
[11] = NIH3T3 cell viability loss – ATP luminescence, mouse fibroblasts, counter-screen, dose response (AID 2010); assay type: functional, cell-based;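 note: cells exposed to compound for about 90 hours before reading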
Melanocortin receptor 4 = Melanocortin receptor 4 (Homo sapiens, UniProt P32245); assay: inhibitors of MC4R cAMP signaling – cell-based, TR-FRET, biased antagonists, dose response (AID 602298); assay type: functional;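 note: antagonist potency against agonist-stimulated cAMP production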
Chain of Melanocortin receptor 4 (P32245 whole entry): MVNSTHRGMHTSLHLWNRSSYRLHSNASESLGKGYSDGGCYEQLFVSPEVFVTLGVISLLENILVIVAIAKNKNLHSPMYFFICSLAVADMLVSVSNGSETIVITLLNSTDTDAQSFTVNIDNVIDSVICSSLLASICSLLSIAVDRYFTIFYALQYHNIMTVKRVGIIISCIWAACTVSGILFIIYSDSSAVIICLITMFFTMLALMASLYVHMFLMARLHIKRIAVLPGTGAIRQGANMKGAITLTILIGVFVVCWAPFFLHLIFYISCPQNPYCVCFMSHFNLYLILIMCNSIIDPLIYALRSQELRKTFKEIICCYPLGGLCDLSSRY

[12] = cAMP pathway inhibition in counterscreen cell line – TR-FRET cAMP detection, counter-screen for MC4R biased antagonist project, dose response (AID 602305); assay type: functional, cell-based;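 note: U2OS cells stimulated with forskolin near its EC80 as the cAMP inducer; potency is for inhibition of forskolin-stimulated cAMP signaling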
[13] = target: Multidrug resistance protein CDR1 (Candida albicans, UniProt P43071); assay: inhibition of Nile Red efflux via Candida CDR1 – S. cerevisiae AD1-8u, singleplex, Cherry Pick1 hits, dose response (AID 588606); assay type: functional
Chain of Multidrug resistance protein CDR1 (P43071 whole entry, looked up): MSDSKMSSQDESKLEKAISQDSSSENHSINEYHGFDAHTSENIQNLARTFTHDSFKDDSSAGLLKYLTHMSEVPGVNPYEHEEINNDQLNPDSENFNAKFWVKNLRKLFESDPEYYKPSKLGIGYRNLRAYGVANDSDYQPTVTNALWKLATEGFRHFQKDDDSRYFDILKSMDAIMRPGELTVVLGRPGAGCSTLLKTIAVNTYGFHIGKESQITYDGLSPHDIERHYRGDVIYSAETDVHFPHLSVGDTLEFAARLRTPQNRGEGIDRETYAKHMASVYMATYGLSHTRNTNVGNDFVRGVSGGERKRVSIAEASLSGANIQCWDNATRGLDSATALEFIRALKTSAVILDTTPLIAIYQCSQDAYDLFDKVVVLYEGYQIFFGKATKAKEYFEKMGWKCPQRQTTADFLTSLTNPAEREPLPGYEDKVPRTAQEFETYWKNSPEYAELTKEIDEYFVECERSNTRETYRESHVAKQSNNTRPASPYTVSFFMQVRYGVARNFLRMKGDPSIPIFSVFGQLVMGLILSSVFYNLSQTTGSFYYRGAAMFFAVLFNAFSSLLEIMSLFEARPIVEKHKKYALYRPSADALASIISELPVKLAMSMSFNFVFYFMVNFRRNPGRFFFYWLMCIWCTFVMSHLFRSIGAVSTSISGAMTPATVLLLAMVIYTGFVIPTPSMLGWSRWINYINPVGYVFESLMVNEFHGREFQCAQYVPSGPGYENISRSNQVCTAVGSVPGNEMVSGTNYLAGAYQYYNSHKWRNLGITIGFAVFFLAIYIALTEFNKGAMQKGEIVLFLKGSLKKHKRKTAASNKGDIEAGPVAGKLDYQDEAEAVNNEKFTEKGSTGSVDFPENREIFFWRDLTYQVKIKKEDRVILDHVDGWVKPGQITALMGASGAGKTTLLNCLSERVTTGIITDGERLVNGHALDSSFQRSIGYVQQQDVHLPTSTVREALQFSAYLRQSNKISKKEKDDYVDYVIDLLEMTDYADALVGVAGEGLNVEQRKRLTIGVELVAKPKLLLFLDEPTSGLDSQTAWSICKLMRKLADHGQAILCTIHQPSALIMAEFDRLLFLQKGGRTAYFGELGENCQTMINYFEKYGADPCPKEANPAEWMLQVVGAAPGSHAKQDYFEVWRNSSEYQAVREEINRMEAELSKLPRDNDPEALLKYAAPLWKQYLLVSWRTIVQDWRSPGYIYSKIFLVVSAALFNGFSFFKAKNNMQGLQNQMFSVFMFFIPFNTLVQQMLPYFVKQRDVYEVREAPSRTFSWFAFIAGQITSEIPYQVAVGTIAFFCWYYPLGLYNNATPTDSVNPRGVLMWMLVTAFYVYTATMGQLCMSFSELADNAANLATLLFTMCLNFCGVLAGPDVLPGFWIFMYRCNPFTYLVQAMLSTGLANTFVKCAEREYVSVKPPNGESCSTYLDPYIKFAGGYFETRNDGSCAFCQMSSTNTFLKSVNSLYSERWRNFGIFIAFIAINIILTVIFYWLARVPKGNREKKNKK

[14] = target: Cyclin-dependent kinase 19 (Homo sapiens, UniProt Q9BWU1); assay: Navigating the Kinome. Panel member name: CDC2L6; assay type: functional
Chain of Cyclin-dependent kinase 19 (Q9BWU1 whole entry): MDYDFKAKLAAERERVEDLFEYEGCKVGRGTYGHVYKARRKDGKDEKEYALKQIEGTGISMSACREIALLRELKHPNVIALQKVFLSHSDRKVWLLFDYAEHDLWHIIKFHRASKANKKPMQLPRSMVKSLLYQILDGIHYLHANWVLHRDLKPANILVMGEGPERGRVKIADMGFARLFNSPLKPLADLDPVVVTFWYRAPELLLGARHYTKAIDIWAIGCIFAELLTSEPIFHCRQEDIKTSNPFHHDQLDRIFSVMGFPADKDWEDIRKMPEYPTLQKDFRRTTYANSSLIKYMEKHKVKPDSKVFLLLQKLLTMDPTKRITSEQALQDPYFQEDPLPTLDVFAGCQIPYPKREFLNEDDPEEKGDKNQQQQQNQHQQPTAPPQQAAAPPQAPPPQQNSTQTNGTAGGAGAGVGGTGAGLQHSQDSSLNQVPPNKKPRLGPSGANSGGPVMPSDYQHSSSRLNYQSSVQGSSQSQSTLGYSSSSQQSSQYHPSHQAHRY

[15] = target: Vascular endothelial growth factor receptor 1 (Homo sapiens, UniProt P17948); assay type: functional;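 note: measured within a kinome-wide profiling panel, FLT1 as the panel member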
Chain of Vascular endothelial growth factor receptor 1 (P17948 whole entry): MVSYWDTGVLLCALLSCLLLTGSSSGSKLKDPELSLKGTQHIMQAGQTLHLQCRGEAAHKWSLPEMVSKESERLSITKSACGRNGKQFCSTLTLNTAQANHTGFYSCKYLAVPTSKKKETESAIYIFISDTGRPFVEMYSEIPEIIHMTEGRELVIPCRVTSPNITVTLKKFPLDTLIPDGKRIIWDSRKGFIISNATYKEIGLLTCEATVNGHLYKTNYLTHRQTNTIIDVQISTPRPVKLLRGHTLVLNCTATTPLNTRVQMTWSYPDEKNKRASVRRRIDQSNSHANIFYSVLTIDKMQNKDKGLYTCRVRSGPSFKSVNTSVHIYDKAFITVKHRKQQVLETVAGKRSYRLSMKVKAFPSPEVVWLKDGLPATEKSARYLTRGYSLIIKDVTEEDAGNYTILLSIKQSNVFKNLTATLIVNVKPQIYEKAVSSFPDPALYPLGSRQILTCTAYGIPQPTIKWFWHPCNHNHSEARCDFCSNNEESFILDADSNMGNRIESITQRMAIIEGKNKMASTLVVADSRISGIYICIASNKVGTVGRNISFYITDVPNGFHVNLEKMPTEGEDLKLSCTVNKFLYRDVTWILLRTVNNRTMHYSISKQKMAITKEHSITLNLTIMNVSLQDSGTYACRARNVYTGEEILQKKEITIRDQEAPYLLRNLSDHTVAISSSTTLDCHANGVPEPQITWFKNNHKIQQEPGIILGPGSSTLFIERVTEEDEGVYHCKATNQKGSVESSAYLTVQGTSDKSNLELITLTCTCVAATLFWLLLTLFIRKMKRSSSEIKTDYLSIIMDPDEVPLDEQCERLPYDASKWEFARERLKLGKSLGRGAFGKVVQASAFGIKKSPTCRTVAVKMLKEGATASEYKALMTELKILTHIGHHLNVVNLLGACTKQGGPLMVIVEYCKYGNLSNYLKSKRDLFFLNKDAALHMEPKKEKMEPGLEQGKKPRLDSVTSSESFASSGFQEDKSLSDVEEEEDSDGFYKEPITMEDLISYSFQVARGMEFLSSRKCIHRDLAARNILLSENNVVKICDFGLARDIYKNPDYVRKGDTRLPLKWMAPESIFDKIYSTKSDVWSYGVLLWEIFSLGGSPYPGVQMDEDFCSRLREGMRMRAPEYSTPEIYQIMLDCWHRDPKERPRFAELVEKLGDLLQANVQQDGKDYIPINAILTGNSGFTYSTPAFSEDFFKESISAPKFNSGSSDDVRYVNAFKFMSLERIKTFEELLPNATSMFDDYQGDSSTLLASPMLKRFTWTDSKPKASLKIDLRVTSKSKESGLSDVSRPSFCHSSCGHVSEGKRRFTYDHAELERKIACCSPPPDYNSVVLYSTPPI

Structure (SMILES): COc1ccc(NC(=O)C2CCN(S(=O)(=O)c3ccc4c(c3)CC(C)N4C(C)=O)CC2)cc1OC (stereo not drawn)
EC50 (cells [1]): > 350 µM (not active) | EC50 (cells [2]): > 350 µM (not active) | EC50 (Insulin-degrading enzyme [3]): > 54.7 µM (inactive) | EC50 (Insulin-degrading enzyme [4]): > 54.7 µM (inactive) | IC50 (HEK293 [5]): > 89.2 µM (inactive) | EC50 (HEK293 [6]): > 54.7 µM (inactive)

Structure (SMILES): O=C(O)Cn1nc(-c2ccccc2)c2ccccc21
AC50 (NIH3T3): > 260 µM (inactive)

IC50 (Caspase-3): 2.88 µM (active) | IC50 [8]: 2.05 µM (active) | IC50 [9]: 1.31 µM (active)
Structure (SMILES): CCC(C)(C)c1ccc2c(c1)C(=O)c1ccccc1C2=O
IC50 [7]: 2.38 µM (active)

Structure (SMILES): N#Cc1c(N2CCN(C(=O)c3ccco3)CC2)nc(-c2ccccc2)c2c1CCCC2
EC50 [10]: 2.31 µM (active) | EC50 [11]: > 60 µM (not active) | IC50 (Melanocortin receptor 4): > 64.6 µM (inactive) | IC50 [12]: > 64.6 µM (inactive)

Structure (SMILES): CCSc1cc(N2CCOCC2)nc(-c2ccccc2)n1
EC50 [13]: 0.016 µM (active)

Ki [14]: > 100 µM (inactive) | Ki [15]: 0.000251 µM (active)
Structure (SMILES): Cc1ccc(F)c(NC(=O)Nc2ccc(-c3coc4c(-c5cccnc5)cnc(N)c34)cc2)c1
